Reference: PubChem BioAssay (NCI)
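Briefly, cells in 96-well plates were exposed to five compound concentrations for 48 h, and endpoints were estimated by linear interpolation. At the GI50, growth is halved. Definition used: TGI = concentration required for complete inhibition of growth.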

Key:
Assay in all cases: DTP human tumour cell line panel, 48 h
786-0 renal = test system: 786-0 renal
A498 renal = test system: A498 renal
A549 NSCLC = test system: A549 NSCLC
ACHN renal = test system: ACHN renal
CAKI-1 renal = test system: CAKI-1 renal
CCRF-CEM leukemia = test system: CCRF-CEM leukemia
COLO 205 colon = test system: COLO 205 colon
DU-145 prostate = test system: DU-145 prostate
EKVX NSCLC = test system: EKVX NSCLC
HCC-2998 colon = test system: HCC-2998 colon
HCT-116 colon = test system: HCT-116 colon
HCT-15 colon = test system: HCT-15 colon
HL-60(TB) leukemia = test system: HL-60(TB) leukemia
HOP-62 NSCLC = test system: HOP-62 NSCLC
HOP-92 NSCLC = test system: HOP-92 NSCLC
HS 578T breast = test system: HS 578T breast
HT29 colon = test system: HT29 colon
IGROV1 ovarian = test system: IGROV1 ovarian
K-562 leukemia = test system: K-562 leukemia
KM12 colon = test system: KM12 colon
LOX IMVI melanoma = test system: LOX IMVI melanoma
M14 melanoma = test system: M14 melanoma
MALME-3M melanoma = test system: MALME-3M melanoma
MCF7 breast = test system: MCF7 breast
MDA-MB-231 breast = test system: MDA-MB-231 breast
MDA-MB-435 = test system: MDA-MB-435
MOLT-4 leukemia = test system: MOLT-4 leukemia
NCI-H226 lung = test system: NCI-H226 lung
NCI-H23 lung = test system: NCI-H23 lung
NCI-H460 lung = test system: NCI-H460 lung
NCI-H522 lung = test system: NCI-H522 lung
NCI/ADR-RES ovarian = test system: NCI/ADR-RES ovarian
OVCAR-3 ovarian = test system: OVCAR-3 ovarian
OVCAR-4 ovarian = test system: OVCAR-4 ovarian
OVCAR-5 ovarian = test system: OVCAR-5 ovarian
PC-3 prostate = test system: PC-3 prostate
RPMI-8226 leukemia = test system: RPMI-8226 leukemia
SF-268 CNS = test system: SF-268 CNS
SF-295 CNS = test system: SF-295 CNS
SF-539 CNS = test system: SF-539 CNS
SK-MEL-2 melanoma = test system: SK-MEL-2 melanoma
SK-MEL-28 melanoma = test system: SK-MEL-28 melanoma
SK-MEL-5 melanoma = test system: SK-MEL-5 melanoma
SK-OV-3 ovarian = test system: SK-OV-3 ovarian
SN12C renal = test system: SN12C renal
SNB-19 CNS = test system: SNB-19 CNS
SNB-75 CNS = test system: SNB-75 CNS
SR leukemia = test system: SR leukemia
SW-620 colon = test system: SW-620 colon
T-47D breast = test system: T-47D breast
TK-10 renal = test system: TK-10 renal
U251 CNS = test system: U251 CNS
UACC-62 melanoma = test system: UACC-62 melanoma
UO-31 renal = test system: UO-31 renal
OVCAR-8 ovarian = test system: OVCAR-8 ovarian
RXF 393 renal = test system: RXF 393 renal
UACC-257 melanoma = test system: UACC-257 melanoma

CSc1ccc(C2=NN(c3ccccc3)C(c3ccc(-c4cc(Cl)c(Cl)cc4Cl)o3)C2)cc1 (stereo not given)
GI50 (786-0 renal): > 100 µM | TGI (786-0 renal): > 100 µM | GI50 (A498 renal): > 100 µM | TGI (A498 renal): > 100 µM | GI50 (A549 NSCLC): > 100 µM | TGI (A549 NSCLC): > 100 µM | GI50 (ACHN renal): > 100 µM | TGI (ACHN renal): > 100 µM | GI50 (CAKI-1 renal): > 100 µM | TGI (CAKI-1 renal): > 100 µM | GI50 (CCRF-CEM leukemia): > 100 µM | TGI (CCRF-CEM leukemia): > 100 µM | GI50 (COLO 205 colon): > 100 µM | TGI (COLO 205 colon): > 100 µM | GI50 (DU-145 prostate): > 100 µM | TGI (DU-145 prostate): > 100 µM | GI50 (EKVX NSCLC): > 100 µM | TGI (EKVX NSCLC): > 100 µM | GI50 (HCC-2998 colon): > 100 µM | TGI (HCC-2998 colon): > 100 µM | GI50 (HCT-116 colon): > 100 µM | TGI (HCT-116 colon): > 100 µM | GI50 (HCT-15 colon): > 100 µM | TGI (HCT-15 colon): > 100 µM | GI50 (HL-60(TB) leukemia): > 100 µM | TGI (HL-60(TB) leukemia): > 100 µM | GI50 (HOP-62 NSCLC): 12.3 µM | TGI (HOP-62 NSCLC): > 100 µM | GI50 (HOP-92 NSCLC): 21 µM | TGI (HOP-92 NSCLC): 52.1 µM | GI50 (HS 578T breast): 46.3 µM | TGI (HS 578T breast): > 100 µM | GI50 (HT29 colon): > 100 µM | TGI (HT29 colon): > 100 µM | GI50 (IGROV1 ovarian): > 100 µM | TGI (IGROV1 ovarian): > 100 µM | GI50 (K-562 leukemia): > 100 µM | TGI (K-562 leukemia): > 100 µM | GI50 (KM12 colon): > 100 µM | TGI (KM12 colon): > 100 µM | GI50 (LOX IMVI melanoma): > 100 µM | TGI (LOX IMVI melanoma): > 100 µM | GI50 (M14 melanoma): > 100 µM | TGI (M14 melanoma): > 100 µM | GI50 (MALME-3M melanoma): > 100 µM | TGI (MALME-3M melanoma): > 100 µM | GI50 (MCF7 breast): > 100 µM | TGI (MCF7 breast): > 100 µM | GI50 (MDA-MB-231 breast): > 100 µM | TGI (MDA-MB-231 breast): > 100 µM | GI50 (MDA-MB-435): > 100 µM | TGI (MDA-MB-435): > 100 µM | GI50 (MOLT-4 leukemia): > 100 µM | TGI (MOLT-4 leukemia): > 100 µM | GI50 (NCI-H226 lung): > 100 µM | TGI (NCI-H226 lung): > 100 µM | GI50 (NCI-H23 lung): > 100 µM | TGI (NCI-H23 lung): > 100 µM | GI50 (NCI-H460 lung): 89.3 µM | TGI (NCI-H460 lung): > 100 µM | GI50 (NCI-H522 lung): > 100 µM | TGI (NCI-H522 lung): > 100 µM | GI50 (NCI/ADR-RES ovarian): > 100 µM | TGI (NCI/ADR-RES ovarian): > 100 µM | GI50 (OVCAR-3 ovarian): > 100 µM | TGI (OVCAR-3 ovarian): > 100 µM | GI50 (OVCAR-4 ovarian): > 100 µM | TGI (OVCAR-4 ovarian): > 100 µM | GI50 (OVCAR-5 ovarian): > 100 µM | TGI (OVCAR-5 ovarian): > 100 µM | GI50 (PC-3 prostate): 63.1 µM | TGI (PC-3 prostate): > 100 µM | GI50 (RPMI-8226 leukemia): > 100 µM | TGI (RPMI-8226 leukemia): > 100 µM | GI50 (SF-268 CNS): 87.1 µM | TGI (SF-268 CNS): > 100 µM | GI50 (SF-295 CNS): 54.7 µM | TGI (SF-295 CNS): > 100 µM | GI50 (SF-539 CNS): 63.2 µM | TGI (SF-539 CNS): > 100 µM | GI50 (SK-MEL-2 melanoma): > 100 µM | TGI (SK-MEL-2 melanoma): > 100 µM | GI50 (SK-MEL-28 melanoma): > 100 µM | TGI (SK-MEL-28 melanoma): > 100 µM | GI50 (SK-MEL-5 melanoma): > 100 µM | TGI (SK-MEL-5 melanoma): > 100 µM | GI50 (SK-OV-3 ovarian): 35.8 µM | TGI (SK-OV-3 ovarian): > 100 µM | GI50 (SN12C renal): > 100 µM | TGI (SN12C renal): > 100 µM | GI50 (SNB-19 CNS): 64.3 µM | TGI (SNB-19 CNS): > 100 µM | GI50 (SNB-75 CNS): 27.5 µM | TGI (SNB-75 CNS): 85.7 µM | GI50 (SR leukemia): > 100 µM | TGI (SR leukemia): > 100 µM | GI50 (SW-620 colon): > 100 µM | TGI (SW-620 colon): > 100 µM | GI50 (T-47D breast): > 100 µM | TGI (T-47D breast): > 100 µM | GI50 (TK-10 renal): > 100 µM | TGI (TK-10 renal): > 100 µM | GI50 (U251 CNS): 89.2 µM | TGI (U251 CNS): > 100 µM | GI50 (UACC-62 melanoma): 78.8 µM | TGI (UACC-62 melanoma): > 100 µM | GI50 (UO-31 renal): > 100 µM | TGI (UO-31 renal): > 100 µM

OCN(CO)c1ccc2c(c1)Cc1cc(F)ccc1-2
TGI (786-0 renal): > 100 µM | TGI (A549 NSCLC): 47.3 µM | TGI (ACHN renal): 36.4 µM | TGI (CAKI-1 renal): 44.6 µM | TGI (COLO 205 colon): 24.9 µM | TGI (DU-145 prostate): 50.2 µM | TGI (EKVX NSCLC): 41.5 µM | TGI (HCT-116 colon): > 100 µM | TGI (HCT-15 colon): 41.9 µM | TGI (HL-60(TB) leukemia): 78.4 µM | TGI (HOP-62 NSCLC): > 100 µM | TGI (HS 578T breast): 33.9 µM | TGI (HT29 colon): 27.9 µM | TGI (IGROV1 ovarian): 43 µM | TGI (K-562 leukemia): 39.9 µM | TGI (KM12 colon): 35.4 µM | TGI (LOX IMVI melanoma): 31.7 µM | TGI (M14 melanoma): 60.9 µM | TGI (MALME-3M melanoma): 52.4 µM | TGI (MCF7 breast): 42.7 µM | TGI (MDA-MB-231 breast): 32.9 µM | TGI (MDA-MB-435): 36.8 µM | TGI (MOLT-4 leukemia): 75.8 µM | TGI (NCI-H226 lung): 40.3 µM | TGI (NCI-H23 lung): 93.7 µM | TGI (NCI-H460 lung): 65.1 µM | TGI (NCI-H522 lung): 37.4 µM | TGI (NCI/ADR-RES ovarian): 51.4 µM | TGI (OVCAR-3 ovarian): 27.4 µM | TGI (OVCAR-4 ovarian): 45.7 µM | TGI (OVCAR-5 ovarian): 46.8 µM | TGI (OVCAR-8 ovarian): 40.5 µM | TGI (PC-3 prostate): 36.2 µM | TGI (RXF 393 renal): > 100 µM | TGI (SF-268 CNS): 81.3 µM | TGI (SF-295 CNS): 30.1 µM | TGI (SF-539 CNS): 36.8 µM | TGI (SK-MEL-2 melanoma): 45.9 µM | TGI (SK-MEL-28 melanoma): 88.7 µM | TGI (SK-MEL-5 melanoma): 23.3 µM | TGI (SK-OV-3 ovarian): 95.9 µM | TGI (SN12C renal): 38.6 µM | TGI (SNB-19 CNS): 44 µM | TGI (SNB-75 CNS): 56.3 µM | TGI (SR leukemia): 39.3 µM | TGI (SW-620 colon): 25.4 µM | TGI (T-47D breast): 36.1 µM | TGI (TK-10 renal): 39.2 µM | TGI (U251 CNS): 34.8 µM | TGI (UACC-257 melanoma): 37.2 µM | TGI (UACC-62 melanoma): 38.1 µM | TGI (UO-31 renal): 59.9 µM
